pKi: −log10 of the molar value.

This test deals with Metabotropic glutamate receptor 8 (Rattus norvegicus, UniProt P70579).
Metabotropic glutamate receptor 8, sequence (P70579 whole entry): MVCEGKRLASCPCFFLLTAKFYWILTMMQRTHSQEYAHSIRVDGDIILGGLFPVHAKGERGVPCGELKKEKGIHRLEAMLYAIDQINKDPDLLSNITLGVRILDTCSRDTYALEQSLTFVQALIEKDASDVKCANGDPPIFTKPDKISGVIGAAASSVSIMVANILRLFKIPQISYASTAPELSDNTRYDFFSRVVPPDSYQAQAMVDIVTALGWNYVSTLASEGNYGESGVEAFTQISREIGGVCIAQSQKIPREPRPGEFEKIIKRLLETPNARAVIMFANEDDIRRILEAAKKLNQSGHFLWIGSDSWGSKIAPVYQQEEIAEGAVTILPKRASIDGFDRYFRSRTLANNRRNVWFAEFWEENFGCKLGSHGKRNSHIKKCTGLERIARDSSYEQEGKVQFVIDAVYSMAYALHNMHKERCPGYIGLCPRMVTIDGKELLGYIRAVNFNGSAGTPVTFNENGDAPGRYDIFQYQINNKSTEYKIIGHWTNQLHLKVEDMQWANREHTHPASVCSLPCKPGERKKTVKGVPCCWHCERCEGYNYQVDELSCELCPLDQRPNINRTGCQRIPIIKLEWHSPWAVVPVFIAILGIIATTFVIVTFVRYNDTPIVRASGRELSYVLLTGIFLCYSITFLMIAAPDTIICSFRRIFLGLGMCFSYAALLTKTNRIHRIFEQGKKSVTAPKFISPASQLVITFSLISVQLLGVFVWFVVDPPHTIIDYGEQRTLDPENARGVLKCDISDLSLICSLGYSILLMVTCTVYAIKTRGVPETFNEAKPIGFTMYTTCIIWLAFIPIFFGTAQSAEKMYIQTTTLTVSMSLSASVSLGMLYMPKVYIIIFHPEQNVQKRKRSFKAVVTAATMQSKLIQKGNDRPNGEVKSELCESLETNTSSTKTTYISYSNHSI
`N[C@@H](COP(=O)(O)O)C(=O)O` gave a pKi of 5.92.
The compound `CC(N)(C(=O)O)c1ccc(P(=O)(O)O)cc1` (configuration not stated) had a pKi of 6.32.
Then `C[C@@](N)(C(=O)O)c1ccc(C(=O)O)cc1` (racemic), with less than 5.00; and `N[C@@H](CCP(=O)(O)O)C(=O)O` [2-Amino-4-phosphono-butyric acid], with 5.57; and `NC(C(=O)O)c1ccc(P(=O)(O)O)cc1` (configuration not stated) [Amino-(4-phosphono-phenyl)-acetic acid(RS-PPG)], with 5.89.
Then `N[C@H](CCP(=O)(O)O)C(=O)O` [D-AP4], with less than 5.00.
Then `NC(CCC(=O)O)C(=O)O` (configuration not stated) [glutamic acid dianion], with less than 5.00.

The values above are taken from BindingDB's records for doi:10.1016/s0028-3908(00)00128-3 (University of Toronto, 2001).
